Values of other authors in US8937081B2, “Statin bioavailability enhancement delivery composition” (PruGen IP Holdings, Inc., priority 2011, dated 2015).

Columns and labels:
[1] = among the marketed statins
[2] = system: hepatocytes; conditions: in hepatocytes

## COCc1c(C(C)C)nc(C(C)C)c(/C=C/[C@@H](O)C[C@@H](O)CC(=O)O)c1-c1ccc(F)cc1 [cerivastatin]
[1]
  percentage of serious adverse effects: largest percentage of serious adverse effects

## CC(C)c1nc(N(C)S(C)(=O)=O)nc(-c2ccc(F)cc2)c1/C=C/[C@@H](O)C[C@@H](O)CC(=O)O [rosuvastatin]
[2]
  IC50: low
